Assay results reported in PubChem BioAssay (NCI).
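These data come from cells grown in 96-well plates and exposed to compound for 48 hours at five concentrations. TGI denotes the concentration required for complete inhibition of growth.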

Columns and labels:
Test in all cases: inhibition of tumour cell growth, NCI panel, 48 h
COLO 205 colon = system: COLO 205 colon
NCI-H460 lung = system: NCI-H460 lung
HS 578T breast = system: HS 578T breast
UACC-257 melanoma = system: UACC-257 melanoma
CCRF-CEM leukemia = system: CCRF-CEM leukemia
U251 CNS = system: U251 CNS
MDA-N = system: MDA-N
SF-295 CNS = system: SF-295 CNS
SK-MEL-2 melanoma = system: SK-MEL-2 melanoma
SNB-75 CNS = system: SNB-75 CNS
TK-10 renal = system: TK-10 renal
NCI-H23 lung = system: NCI-H23 lung
ACHN renal = system: ACHN renal
OVCAR-5 ovarian = system: OVCAR-5 ovarian
HCC-2998 colon = system: HCC-2998 colon
NCI/ADR-RES ovarian = system: NCI/ADR-RES ovarian
SK-MEL-28 melanoma = system: SK-MEL-28 melanoma
SW-620 colon = system: SW-620 colon
MDA-MB-435 = system: MDA-MB-435
MALME-3M melanoma = system: MALME-3M melanoma
SR leukemia = system: SR leukemia
KM12 colon = system: KM12 colon
HL-60(TB) leukemia = system: HL-60(TB) leukemia
SK-OV-3 ovarian = system: SK-OV-3 ovarian
OVCAR-4 ovarian = system: OVCAR-4 ovarian
HCT-15 colon = system: HCT-15 colon
M14 melanoma = system: M14 melanoma
NCI-H522 lung = system: NCI-H522 lung
K-562 leukemia = system: K-562 leukemia
RPMI-8226 leukemia = system: RPMI-8226 leukemia
A498 renal = system: A498 renal
OVCAR-8 ovarian = system: OVCAR-8 ovarian
UACC-62 melanoma = system: UACC-62 melanoma
MOLT-4 leukemia = system: MOLT-4 leukemia
EKVX NSCLC = system: EKVX NSCLC
DU-145 prostate = system: DU-145 prostate
OVCAR-3 ovarian = system: OVCAR-3 ovarian
786-0 renal = system: 786-0 renal
CAKI-1 renal = system: CAKI-1 renal
PC-3 prostate = system: PC-3 prostate
A549 NSCLC = system: A549 NSCLC
SF-539 CNS = system: SF-539 CNS
IGROV1 ovarian = system: IGROV1 ovarian
HT29 colon = system: HT29 colon
MDA-MB-231 breast = system: MDA-MB-231 breast
LOX IMVI melanoma = system: LOX IMVI melanoma
HOP-92 NSCLC = system: HOP-92 NSCLC
RXF 393 renal = system: RXF 393 renal
NCI-H226 lung = system: NCI-H226 lung
SK-MEL-5 melanoma = system: SK-MEL-5 melanoma
T-47D breast = system: T-47D breast
MCF7 breast = system: MCF7 breast
HCT-116 colon = system: HCT-116 colon
SF-268 CNS = system: SF-268 CNS
BT-549 breast = system: BT-549 breast
SN12C renal = system: SN12C renal
SNB-19 CNS = system: SNB-19 CNS
UO-31 renal = system: UO-31 renal
HOP-62 NSCLC = system: HOP-62 NSCLC

Measured: TGI

O/N=C(\CC(O)(C(F)(F)F)C(F)(F)F)c1cccc(Cl)c1
57.6 µM: SNB-75 CNS
62.7 µM: M14 melanoma
49.2 µM: NCI-H23 lung
62.5 µM: LOX IMVI melanoma
31.6 µM: SK-MEL-5 melanoma
38.8 µM: MOLT-4 leukemia
60.2 µM: NCI-H226 lung
56.9 µM: MDA-MB-231 breast
82.2 µM: HL-60(TB) leukemia
46.5 µM: RXF 393 renal
83.3 µM: PC-3 prostate
49 µM: U251 CNS
84.4 µM: IGROV1 ovarian
65.9 µM: ACHN renal
56.6 µM: HOP-92 NSCLC
68.7 µM: CAKI-1 renal
58.5 µM: SK-OV-3 ovarian
47.4 µM: CCRF-CEM leukemia
98.8 µM: TK-10 renal
49.4 µM: OVCAR-3 ovarian
79.7 µM: T-47D breast
67.6 µM: EKVX NSCLC
85.9 µM: MDA-MB-435 | SF-539 CNS
63.5 µM: SK-MEL-2 melanoma
53 µM: HS 578T breast
> 100 µM: COLO 205 colon | NCI-H460 lung | UACC-257 melanoma | MDA-N | SF-295 CNS | OVCAR-5 ovarian | HCC-2998 colon | NCI/ADR-RES ovarian | SK-MEL-28 melanoma | SW-620 colon | MALME-3M melanoma | SR leukemia | KM12 colon | OVCAR-4 ovarian | HCT-15 colon | NCI-H522 lung | K-562 leukemia | RPMI-8226 leukemia | A498 renal | OVCAR-8 ovarian | UACC-62 melanoma | DU-145 prostate | 786-0 renal | A549 NSCLC | HT29 colon | MCF7 breast | HCT-116 colon

COc1cc(S(=O)(=O)Nc2ccc(-c3csc(N4C(=O)C(Cl)C4c4ccccc4)n3)cc2)ccc1Cl (centres undefined)
23.1 µM: RXF 393 renal
87.3 µM: OVCAR-4 ovarian
49 µM: MALME-3M melanoma | 786-0 renal
94.4 µM: EKVX NSCLC
51.2 µM: UACC-62 melanoma
94 µM: SN12C renal
38.7 µM: DU-145 prostate
39.9 µM: OVCAR-8 ovarian
89.3 µM: NCI-H23 lung
49.1 µM: SNB-75 CNS
68.8 µM: A498 renal
> 100 µM: SF-268 CNS | COLO 205 colon | NCI-H460 lung | HS 578T breast | UACC-257 melanoma | CCRF-CEM leukemia | MDA-N | SF-295 CNS | SK-MEL-2 melanoma | TK-10 renal | ACHN renal | OVCAR-5 ovarian | NCI/ADR-RES ovarian | SK-MEL-28 melanoma | SW-620 colon | MDA-MB-435 | SR leukemia | KM12 colon | HL-60(TB) leukemia | SK-OV-3 ovarian | HCT-15 colon | K-562 leukemia | RPMI-8226 leukemia | MOLT-4 leukemia | OVCAR-3 ovarian | SNB-19 CNS | CAKI-1 renal | PC-3 prostate | A549 NSCLC | SF-539 CNS | HT29 colon | MCF7 breast | HCT-116 colon | HOP-62 NSCLC
63.1 µM: UO-31 renal
59.2 µM: M14 melanoma
33.7 µM: HOP-92 NSCLC
33.9 µM: NCI-H522 lung
22.4 µM: IGROV1 ovarian
88.1 µM: SK-MEL-5 melanoma
83.2 µM: BT-549 breast
77.1 µM: T-47D breast

COC(=O)c1ccccc1/C=C1\Cc2c(C)cc(C)cc2C1=O
> 100 µM: SF-268 CNS | NCI-H460 lung | HS 578T breast | UACC-257 melanoma | CCRF-CEM leukemia | U251 CNS | MDA-N | SF-295 CNS | SK-MEL-2 melanoma | SNB-75 CNS | TK-10 renal | ACHN renal | HCC-2998 colon | SK-MEL-28 melanoma | SW-620 colon | MALME-3M melanoma | SR leukemia | KM12 colon | HL-60(TB) leukemia | OVCAR-4 ovarian | BT-549 breast | HCT-15 colon | M14 melanoma | NCI-H522 lung | K-562 leukemia | RPMI-8226 leukemia | A498 renal | OVCAR-8 ovarian | UACC-62 melanoma | MOLT-4 leukemia | EKVX NSCLC | SN12C renal | OVCAR-3 ovarian | SNB-19 CNS | 786-0 renal | UO-31 renal | CAKI-1 renal | PC-3 prostate | A549 NSCLC | SF-539 CNS | IGROV1 ovarian | HT29 colon | MDA-MB-231 breast | LOX IMVI melanoma | HOP-92 NSCLC | RXF 393 renal | NCI-H226 lung | SK-MEL-5 melanoma | T-47D breast | MCF7 breast | HCT-116 colon | HOP-62 NSCLC
